Results published in US7943376B2, “Platelet derived growth factor (PDGF)-derived neurospheres define a novel class of progenitor cells” (Stem Cell Therapuetics Inc., priority 2001, dated 2011).
Several values for one entry are separate records, joined by “and”; a condition that tells them apart may be missing. Equal values may be shown once. Entries after “also recorded” stand apart in the source; their conditions may differ.

How the values were obtained:
primary EGF neurospheres = assay: Secondary neurosphere formation from dissociated EGF-derived primary neurospheres; assay type: cell-based, mouse; conditions: single primary EGF-generated neurospheres dissociated in EGF- or PDGF-containing media; eight wells per condition; Exp. #1 and #2
Experimental: To determine if the neurospheres derived in EGF-containing media have different proliferation properties as those of PDGF-generated neurospheres, primary EGF neurospheres were generated from embryonic day 14 striatum by culturing dissociated striatum in EGF (20 ng/ml) containing define culture media at a cell density of 200,000 cells/ml. Subsequently, individual neurospheres were isolated, placed in individual wells in either PDGF or EGF containing media, and dissociated mechanically. The numbers of secondary neurospheres that came from a single primary EGF-generated neurospheres are given below (eight wells for each condition; numbers indicate average number of secondary neurospheres/well): […]

[1] = test system: medial ganglionic eminence (MGE); assay: Neurosphere formation using medial ganglionic eminence; assay type: cell-based, mice; conditions: MGE from E14 embryos, cultured as in Example 1 with EGF or PDGF; n = 2 or 3
Source text: (§1) In order to locate the cells that give rise to the novel progenitor cells described herein, we dissected ganglionic eminence to two portions. Thus, the ganglionic eminence was isolated from E14 embryos of mice, and the medial ganglionic eminence (MGE) was separated from the lateral ganglionic eminence (LGE). MGE and LGE were then dissociated and cultured as described in Example 1. The resulting primary culture was exposed to EGF or PDGF in addition to the defined culture media, and the number of neurospheres were counted and summarized below.

[2] = test system: lateral ganglionic eminence (LGE); assay: Neurosphere formation using lateral ganglionic eminence; assay type: cell-based, mice; conditions: LGE from E14 embryos, cultured as in Example 1 with EGF or PDGF; n = 2 or 3
Source text: as §1

[3] = test system: PDGF primary neurospheres; assay: Secondary neurosphere formation from dissociated PDGF-derived primary neurospheres; assay type: cell-based, mouse; conditions: single PDGF primary neurospheres dissociated in 20 ng/ml EGF or 100 ng/ml PDGF-AA; 7 or more days in vitro
Experimental: Single PDGF primary neurospheres prepared as described in Example 1 were transferred into 96-well plates and mechanically dissociated in either the presence of 20 ng/ml EGF (Peprotech) or 100 ng/ml PDGF-AA. The formation of secondary neurospheres was assayed after 7 or more days in culture in vitro.

[4] = test system: brain tissue prepared as described in Example 1 (E14 striatum); assay: Combined effect of PDGF and EGF on number of neurospheres formed; assay type: cell-based, mouse; conditions: cultured in PDGF, EGF, or the combination of PDGF and EGF
Experimental: (§2) E14 striatum was mechanically dissociated as previously described (for example see U.S. Pat. Nos. 5,750,376; 5,980,885; or 5,851,832) and plated at 10,000 cells/ml in 6 well plates in defined culture media plus 100 ng/ml of PDGF-AA (Peprotech). The composition of defined culture media is as follows: • DMEM/F12 (1:1) • glucose (0.6%) • glutamine (2 mM) • sodium bicarbonate (3 mM) • HEPES (5 mM) • insulin (25 μg/ml) • transferrin (100 μg/ml) • progesterone (20 nM) • putrescine (60 μM) • selenium chloride (30 nM)
We also tested the effect of combining PDGF and EGF on the number of neurospheres formed. Thus, brain tissue was prepared as described in Example 1 and cultured in the presence of PDGF, EGF, or the combination of PDGF and EGF.

EGF-derived neurospheres = assay: Effect of Tyrphostin AG 1296 on primary neurosphere formation in response to EGF; assay type: cell-based, mouse
Experimental: (§3) In order to determine if the PDGF-induced primary neurosphere formation is mediated by the PDGF receptor kinase, a selective PDGF receptor kinase inhibitor, Tyrphostin AG 1296, was added to neurosphere culture. Primary cells were cultured at 10,000 cells/ml in the presence of either EGF or PDGF, plus 5 μM of Tyrphostin AG 1296 (Sigma) or DMSO in the same volume as Tyrphostin (DMSO being the solvent for Tyrphostin). Results are expressed below as the percentage of neurospheres formed, with the number of PDGF- or EGF-derived neurospheres arbitrarily set at 100%, respectively.

[5] = test system: PDGF-derived neurospheres; assay: Effect of Tyrphostin AG 1296 on primary neurosphere formation in response to PDGF; assay type: cell-based, mouse
Experimental: as §3

E14 striatum = assay: PDGF-induced production of primary neurospheres from dissociated E14 striatum; assay type: cell-based, mouse
Experimental: as §2
Neurospheres, which are clusters of neural cells derived from single cells, formed after 7 days of culture in vitro (DIV). Six wells per experiment were counted for neurosphere production and the results are shown below:
In control experiments, wherein PDGF was omitted from the culture media, no neurospheres formed. Therefore, PDGF is capable of inducing neurosphere production from single precursor cells in the absence of serum, EGF, TGF-α and FGF-2.

Substance	average number of secondary neurospheres/well (primary EGF neurospheres)	Average number of neurospheres [1]	Average number of neurospheres [2]	Average # of secondary neurospheres formed/well [3]	Average number of neurospheres [4]	Effect on EGF-derived neurosphere formation (in words) (EGF-derived neurospheres; 5 μM Tyrphostin AG 1296)	percentage of neurospheres formed (EGF-derived neurospheres; EGF plus 5 μM Tyrphostin AG 1296, 10,000 cells/ml, EGF alone set at 100%, n = 3 to 9)	Effect on primary neurosphere formation induced by PDGF (in words) ([5]; 5 μM Tyrphostin AG 1296)	percentage of neurospheres formed ([5]; PDGF plus 5 μM Tyrphostin AG 1296, 10,000 cells/ml, PDGF alone set at 100%, n = 3 to 9)	Average number of neurospheres produced/well, average of experiments 1-6 (E14 striatum; 100 ng/ml PDGF-AA, 10,000 cells/ml, 7 DIV, mean over six experiments)	Average number of neurospheres produced/well (E14 striatum; 100 ng/ml PDGF-AA, 10,000 cells/ml, defined media, 7 DIV, single experiments, six wells each)	Average number of neurospheres produced/well (E14 striatum; as E1, experiments marked *: PDGF used immediately after reconstitution in defined culture media)	Potency when used immediately after reconstitution in defined culture media (E14 striatum; relative to PDGF not used immediately after reconstitution)
EGF: epidermal growth factor (Peprotech), used at 20 ng/ml	27 and 14.1	16.9 ± 2.87	9.64 ± 1.59	3.12 ± 1.64 (n = 3)	80.5 ± 8.57								
Tyrphostin AG 1296						inhibited by Tyrphostin AG 1296 to some extent	55%	inhibited; also recorded: almost abolished	10%				
PDGF: platelet derived growth factor; PDGF-AA (Peprotech) used at 100 ng/ml	21.5 and 26.7	10.22 ± 1.11	1.27 ± 0.45	0	73.36 ± 7.13					average = 17.7 ± 5.0	14.5 and 9.2 and 8.6 and 7.7	34.3* and 32.5*	*PDGF appears to be approximately 3 fold more potent when used immediately after reconstitution in defined culture media.
